One assay addresses T1, plasma kallikrein (Homo sapiens, UniProt P03952).
T1 construct: from tissue
Nature of the assay: Neat human plasma assay, FXIIa contact pathway-activated, PFR-AMC substrate. Particulars: citrated human plasma 78% final, 10 nM human FXIIa, 100 μM PFR-AMC; read-out: Human Plasma Assay: IC90. It is filed as biochemical. Put shortly: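 Citrated human plasma (78% final) with compound, contact-activated by 10 nM human FXIIa in pKal buffer pH 7.5, with 100 μM PFR-AMC. Fluorescence (360/480 nm) followed 5 min at room temperature; rates versus concentration fitted by 4-parameter equation for IC50/IC90.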

Assay [1] deals with human activated kallikrein enzyme (Homo sapiens, UniProt P03952). In words: Plasma kallikrein inhibition, fluorogenic PFR-AMC substrate, 500 pM activated kallikrein format. It is filed as biochemical. Particulars: 500 pM activated kallikrein, 300 uM PFR-AMC, 30 min preincubation, 10 min reaction; read-out: Primary Dose Response Assay: Average EC50. Put shortly: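 500 pM enz + cpd, 30 min RT preinc; start w/ PFR-AMC 300 uM; 10 min RT; Ex380/Em460. Buffer: Tris 20 mM pH 7.5, EDTA 1 mM, NaCl 150 mM, PEG-400 0.1%, Triton 0.1%. EC50.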
Chain of human activated kallikrein enzyme (P03952 391-638 limits assumed): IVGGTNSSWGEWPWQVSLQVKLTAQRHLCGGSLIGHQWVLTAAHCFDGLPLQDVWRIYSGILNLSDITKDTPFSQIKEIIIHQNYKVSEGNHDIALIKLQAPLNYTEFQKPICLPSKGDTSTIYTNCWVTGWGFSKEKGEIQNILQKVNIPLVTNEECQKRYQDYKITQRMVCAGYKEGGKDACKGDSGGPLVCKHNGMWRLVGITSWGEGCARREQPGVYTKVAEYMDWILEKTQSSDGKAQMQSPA
Chain of human activated kallikrein enzyme (P03952 20-390 partner limits assumed): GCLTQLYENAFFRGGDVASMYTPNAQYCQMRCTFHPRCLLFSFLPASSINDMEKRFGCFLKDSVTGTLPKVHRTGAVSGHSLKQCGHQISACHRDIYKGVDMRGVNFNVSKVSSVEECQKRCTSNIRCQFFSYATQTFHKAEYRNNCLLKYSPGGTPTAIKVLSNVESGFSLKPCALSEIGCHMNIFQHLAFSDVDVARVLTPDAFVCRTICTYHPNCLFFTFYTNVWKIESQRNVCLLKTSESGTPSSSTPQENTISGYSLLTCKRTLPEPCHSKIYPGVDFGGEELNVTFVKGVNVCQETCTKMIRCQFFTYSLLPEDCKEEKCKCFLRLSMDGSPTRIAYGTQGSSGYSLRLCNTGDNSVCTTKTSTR

By IC90 is commonly meant the concentration needed for an effect of 90%. By EC50 is commonly meant the midpoint of the concentration-response curve.

Bounds are passed on as bounds.

T1 sequence (P03952 391-638 limits assumed): as the sequence (P03952 391-638 limits assumed) above
T1 sequence (P03952 20-390 partner limits assumed): as the sequence (P03952 20-390 partner limits assumed) above

In the case of `O=C(O)CCc1cc(C2CC2)cn2cc(CNc3ccnc(NC(=O)[C@H]4C[C@@H]4c4cccc(Cl)c4)c3)nc12` [Example 290, 3-(2-(((2-((1S,2S)-2-(3-chlorophenyl)cyclopropane-1-carboxamido)pyridin-4-yl)amino)methyl)-6-cyclopropylimidazo[1,2-a]pyridin-8-yl)propanoic acid], the IC90 on plasma kallikrein was 1500 to 10000 nM. In addition, the EC50 in assay [1] was less than 1 nM.

In the case of `O=C(Nc1cc(NCc2cn3cc(C4CC4)cc(CCCO)c3n2)ccn1)[C@H]1C[C@@H]1c1cccc(Cl)c1` [Example 291, (1S,2S)-2-(3-chlorophenyl)-N-(4-(((6-cyclopropyl-8-(3-hydroxypropyl)imidazo[1,2-a]pyridin-2-yl)methyl)amino)pyridin-2-yl)cyclopropane-1-carboxamide], on plasma kallikrein, the IC90 is 1500 to 10000 nM. Further, the EC50 in assay [1] is less than 1 nM.

As to `O=C(Nc1cc(NCc2cn3cc(C4CC4)cc(CCO)c3n2)ccn1)[C@H]1C[C@@H]1c1cccc(Cl)c1` [Example 292, (1S,2S)-2-(3-chlorophenyl)-N-(4-(((6-cyclopropyl-8-(2-hydroxyethyl)imidazo[1,2-a]pyridin-2-yl)methyl)amino)pyridin-2-yl)cyclopropane-1-carboxamide], the IC90 at plasma kallikrein lay within 1500 to 10000 nM. For the same compound, the EC50 in assay [1] was less than 1 nM.

Take `NCc1cc(C2CC2)cn2cc(CNc3ccnc(NC(=O)[C@H]4C[C@@H]4c4cccc(Cl)c4)c3)nc12` [Example 293, (1S,2S)—N-(4-(((8-(aminomethyl)-6-cyclopropylimidazo[1,2-a]pyridin-2-yl)methyl)amino)pyridin-2-yl)-2-(3-chlorophenyl)cyclopropane-1-carboxamide]: at plasma kallikrein, the IC90 was 1500 to 10000 nM. In addition, the EC50 in assay [1] was less than 1 nM.

With `O=C(Nc1nc(O)nc(NCc2cn3cc(C4CC4)ccc3n2)n1)[C@H]1C[C@@H]1c1cccc(Cl)c1` [Example 295, (1S,2S)-2-(3-chlorophenyl)-N-(4-(((6-cyclopropylimidazo[1,2-a]pyridin-2-yl)methyl)amino)-6-hydroxy-1,3,5-triazin-2-yl)cyclopropane-1-carboxamide], at plasma kallikrein, the IC90 lay within 1500 to 10000 nM. In assay [1], the EC50 is less than 1 nM.

Take `O=C(Nc1cc(NCc2cn3cc(C4CC4)ccc3n2)nc(=O)[nH]1)[C@H]1C[C@@H]1c1cccc(Cl)c1` [Example 296, (1S,2S)-2-(3-chlorophenyl)-N-(6-(((6-cyclopropylimidazo[1,2-a]pyridin-2-yl)methyl)amino)-2-oxo-2,3-dihydropyrimidin-4-yl)cyclopropane-1-carboxamide]: the IC90 on plasma kallikrein was in the range of 1500 to 10000 nM. Moreover, in assay [1], the EC50 is less than 1 nM.

Consider `CN(C)C(=O)c1cc(C2CC2)cn2cc(CNc3cc(NC(=O)[C@H]4C[C@@H]4c4cccc(Cl)c4)ncn3)nc12` [Example 299, 2-(((6-((1S,2S)-2-(3-chlorophenyl)cyclopropane-1-carboxamido)pyrimidin-4-yl)amino)methyl)-6-cyclopropyl-N,N-dimethylimidazo[1,2-a]pyridine-8-carboxamide], for which the IC90 at plasma kallikrein lay within 400 to 1500 nM. Further, in assay [1], the EC50 was less than 1 nM.

Take `O=C(Nc1cc(NCc2cn3cc(C4CC4)cc(C(=O)N4CCOCC4)c3n2)ncn1)[C@H]1C[C@@H]1c1cccc(Cl)c1` [Example 300, (1S,2S)-2-(3-chlorophenyl)-N-(6-(((6-cyclopropyl-8-(morpholine-4-carbonyl)imidazo[1,2-a]pyridin-2-yl)methyl)amino)pyrimidin-4-yl)cyclopropane-1-carboxamide]: the IC90 on plasma kallikrein lay in the range of 1500 to 10000 nM. Besides, the EC50 in assay [1] is less than 1 nM.

As for `CN1CCN(C(=O)c2cc(C3CC3)cn3cc(CNc4cc(NC(=O)[C@H]5C[C@@H]5c5cccc(Cl)c5)ncn4)nc23)CC1` [Example 301, (1S,2S)-2-(3-chlorophenyl)-N-(6-(((6-cyclopropyl-8-(4-methylpiperazine-1-carbonyl)imidazo[1,2-a]pyridin-2-yl)methyl)amino)pyrimidin-4-yl)cyclopropane-1-carboxamide], on plasma kallikrein, the IC90 was in the range of 1500 to 10000 nM. Further, the EC50 in assay [1] was less than 1 nM.

As for `O=C(Nc1cc(NCc2cn3cc(C4CC4)cc(C(=O)N4CCNCC4)c3n2)ncn1)[C@H]1C[C@@H]1c1cccc(Cl)c1` [Example 304, (1S,2S)-2-(3-chlorophenyl)-N-(6-(((6-cyclopropyl-8-(piperazine-1-carbonyl)imidazo[1,2-a]pyridin-2-yl)methyl)amino)pyrimidin-4-yl)cyclopropane-1-carboxamide], the IC90 at plasma kallikrein was less than 400 nM. Also, the concentration for a half-maximal effect (EC50) in assay [1] is less than 1 nM.

Turning to `O=C(Nc1cc(NCc2cn3cc(C4CC4)cc(-c4ccc[nH]c4=O)c3n2)ncn1)[C@H]1C[C@@H]1c1cccc(Cl)c1` [Example 305, (1S,2S)-2-(3-chlorophenyl)-N-(6-(((6-cyclopropyl-8-(2-oxo-1,2-dihydropyridin-3-yl)imidazo[1,2-a]pyridin-2-yl)methyl)amino)pyrimidin-4-yl)cyclopropane-1-carboxamide], at plasma kallikrein, the IC90 is 1500 to 10000 nM. Also, the EC50 in assay [1] lay in the range of 1 to 10 nM.

`O=C(Nc1cc(NCc2cn3cc(C4CC4)cc(N4CCNCC4)c3n2)ncn1)[C@H]1C[C@@H]1c1cccc(Cl)c1` [Example 307, (1S,2S)-2-(3-chlorophenyl)-N-(6-(((6-cyclopropyl-8-(piperazin-1-yl)imidazo[1,2-a]pyridin-2-yl)methyl)amino)pyrimidin-4-yl)cyclopropane-1-carboxamide]: at plasma kallikrein, the IC90 is less than 400 nM. The EC50 in assay [1] was less than 1 nM.

Regarding `O=C(Nc1cc(NCc2cn3cc(C4CC4)cc(N4CCNC4=O)c3n2)ncn1)[C@H]1C[C@@H]1c1cccc(Cl)c1` [Example 309, (1S,2S)-2-(3-chlorophenyl)-N-(6-(((6-cyclopropyl-8-(2-oxoimidazolidin-1-yl)imidazo[1,2-a]pyridin-2-yl)methyl)amino)pyrimidin-4-yl)cyclopropane-1-carboxamide], the IC90 on plasma kallikrein lay in the range of 1500 to 10000 nM. For the same compound, the EC50 in assay [1] is less than 1 nM.

Regarding `O=C(Nc1cc(NCc2cn3cc(C4CC4)cc(N4CCS(=O)(=O)CC4)c3n2)ncn1)[C@H]1C[C@@H]1c1cc(Cl)ccn1` [Example 326, (1S,2S)-2-(4-chloropyridin-2-yl)-N-(6-(((6-cyclopropyl-8-(1,1-dioxidothiomorpholino)imidazo[1,2-a]pyridin-2-yl)methyl)amino)pyrimidin-4-yl)cyclopropane-1-carboxamide], at plasma kallikrein, the IC90 is 400 to 1500 nM. Further, in assay [1], the concentration for a half-maximal effect (EC50) was less than 1 nM.

Consider `O=C(Nc1cc(NCc2cn3cc(C4CC4)cc(N4CC5CC5C4=O)c3n2)ncn1)[C@H]1C[C@@H]1c1cc(Cl)ccn1` (stereo partly drawn) [Example 327, (1S,2S)-2-(4-chloropyridin-2-yl)-N-(6-(((6-cyclopropyl-8-(2-oxo-3-azabicyclo[3.1.0]hexan-3-yl)imidazo[1,2-a]pyridin-2-yl)methyl)amino)pyrimidin-4-yl)cyclopropane-1-carboxamide], for which, at plasma kallikrein, the IC90 is less than 400 nM. In assay [1], the EC50 was less than 1 nM.

For `Cc1cc(NCc2cn3cc(C4CC4)ccc3n2)cc(NC(=O)[C@H]2C[C@@H]2c2cccc(Cl)c2)n1` [Example 338, (1S,2S)-2-(3-chlorophenyl)-N-(4-(((6-cyclopropylimidazo[1,2-a]pyridin-2-yl)methyl)amino)-6-methylpyridin-2-yl)cyclopropane-1-carboxamide], the IC90 on plasma kallikrein lay within 1500 to 10000 nM. In addition, the EC50 in assay [1] was less than 1 nM.

For `O=C(Nc1cc(NCc2cn3cc(C4CC4)ccc3n2)cc(CCN2CCOCC2)n1)[C@H]1C[C@@H]1c1cccc(Cl)c1` [Example 341, (1S,2S)-2-(3-chlorophenyl)-N-(4-(((6-cyclopropylimidazo[1,2-a]pyridin-2-yl)methyl)amino)-6-(2-morpholinoethyl)pyridin-2-yl)cyclopropane-1-carboxamide], on plasma kallikrein, the IC90 is 1500 to 10000 nM. For the same compound, in assay [1], the EC50 fell in the range of 1 to 10 nM.

Take `O=C(Nc1cc(NCc2cn3cc(C4CC4)ccc3n2)cc(=O)[nH]1)[C@H]1C[C@@H]1c1cc(Cl)ccn1` [Example 343, (1S,2S)-2-(4-chloropyridin-2-yl)-N-(4-(((6-cyclopropylimidazo[1,2-a]pyridin-2-yl)methyl)amino)-6-oxo-1,6-dihydropyridin-2-yl)cyclopropane-1-carboxamide]: the 90% effect concentration (IC90) on plasma kallikrein is 1500 to 10000 nM. The EC50 in assay [1] is less than 1 nM.

As to `COCc1nc(NC(=O)[C@H]2C[C@@H]2c2nccc(C)n2)cc(N(C)Cc2cn3cc(C4CC4)cc(N4CC(=O)N(C)C4=O)c3n2)n1` [Example 354, (1S,2S)-N-(6-(((6-cyclopropyl-8-(3-methyl-2,4-dioxoimidazolidin-1-yl)imidazo[1,2-a]pyridin-2-yl)methyl)(methyl)amino)-2-(methoxymethyl)pyrimidin-4-yl)-2-(4-methylpyrimidin-2-yl)cyclopropane-1-carboxamide], at plasma kallikrein, the IC90 was less than 400 nM. Further, in assay [1], the half-maximal effective concentration (EC50) is less than 1 nM.

For `COCc1nc(NC(=O)[C@H]2C[C@@H]2c2nccc(C)n2)cc(N[C@H](C)c2cn3cc(C4CC4)cc(N4CC(=O)N(C)C4=O)c3n2)n1` [Example 355, (1S,2S)-N-(6-(((R)-1-(6-cyclopropyl-8-(3-methyl-2,4-dioxoimidazolidin-1-yl)imidazo[1,2-a]pyridin-2-yl)ethyl)amino)-2-(methoxymethyl)pyrimidin-4-yl)-2-(4-methylpyrimidin-2-yl)cyclopropane-1-carboxamide], the IC90 on plasma kallikrein was less than 400 nM. Moreover, in assay [1], the EC50 was less than 1 nM.

As to `Cc1ccnc([C@H]2C[C@@H]2C(=O)Nc2cc(NC(C)c3cn4cc(Cl)cc(N5CC(=O)N(C)C5=O)c4n3)nc(C)n2)n1` (stereo partly drawn) [Example 356, (1S,2S)-N-(6-((1-(6-chloro-8-(3-methyl-2,4-dioxoimidazolidin-1-yl)imidazo[1,2-a]pyridin-2-yl)ethyl)amino)-2-methylpyrimidin-4-yl)-2-(4-methylpyrimidin-2-yl)cyclopropane-1-carboxamide], the IC90 on plasma kallikrein lay within 1500 to 10000 nM. Moreover, the EC50 in assay [1] was less than 1 nM.

The values are drawn from patent US20240228488A1 (TAKEDA PHARMACEUTICAL COMPANY LIMITED, priority 2021, published 2024).
